Laboratory results taken from ChEMBL document CHEMBL1159175, “Thiophenoxy peptides: A new class of HIV replication inhibitors” (Bioorg Med Chem Lett, 1996).
Square brackets hold non-standard residues; d marks the D form. Peptide text beside a SMILES is read from it. * marks the point of attachment. Fmoc = O=C(OCC1c2ccccc2-c2ccccc21)*; Gly(SPh) = N[C@@H](Sc1ccccc1)C(=O)O

Tests used:
MT4 [1] = experiment: In vitro antiviral activity against HIV-1 replication in MT-4 cells was determined by 50% inhibition of syncytia formation: Inactive; type: functional, cell-based, Homo sapiens
MT4 [2] = experiment: In vitro antiviral activity against HIV-1 replication in MT-4 cells was determined by 50% inhibition of syncytia formation: Inactive / toxic; type: functional, cell-based, Homo sapiens
MT4 [3] = experiment: In vitro antiviral activity against HIV-1 replication in MT-4 cells was determined by 50% inhibition of syncytia formation; type: functional, cell-based; conditions: Homo sapiens
[4] = Therapeutic index was determined by the ratio of ID50/IC50 (ID50: Dose required to cause death of 50% of uninfected MT-4 cells); type: cell-based, MT4; conditions: human, MT-4 cells (uninfected, for ID50); read-out: TI

Compound	IC50 (MT4 [1])	IC50 (MT4 [2])	IC50 (MT4 [3])	selectivity ratio [4]
C=CCOC(=O)C(NC(=O)C(CC(C)C)NC(=O)OC(C)(C)C)Sc1ccccc1 (stereo not given)	Not Active	–	–	–
CC(C)CC(NC(=O)OC(C)(C)C)C(=O)NC(Sc1ccccc1)C(=O)O (stereo not given)	Not Active	–	–	–
CC[C@H](C)[C@H](NC(=O)OCC1c2ccccc2-c2ccccc21)C(=O)N[C@@H](CCCN=C(N)N)C(=O)N[C@@H](CCCCN)C(=O)N[C@H](C(=O)N[C@@H](CC(C)C)C(=O)N[C@@H](Sc1ccccc1)C(=O)N[C@@H](CC(C)C)C(=O)N[C@@H](CC(=O)O)C(=O)NCC(N)=O)[C@@H](C)CC (Fmoc-IRKIL[Gly(SPh)]LDG-NH2)	–	Toxic	–	–
CC[C@H](C)[C@H](NC(=O)CNC(=O)[C@H](CC(=O)O)NC(=O)[C@H](CC(C)C)NC(=O)[C@@H](NC(=O)[C@H](CC(C)C)NC(=O)[C@@H](NC(=O)[C@H](CCCCN)NC(=O)[C@H](CCCN=C(N)N)NC(=O)[C@@H](NC(=O)OCC1c2ccccc2-c2ccccc21)[C@@H](C)CC)[C@@H](C)CC)Sc1ccccc1)C(=O)O (Fmoc-IRKIL[Gly(SPh)]LDGI-OH)	–	–	100 µM	10
CC[C@H](C)[C@H](N)C(=O)N[C@@H](CCCN=C(N)N)C(=O)N[C@@H](CCCCN)C(=O)N[C@H](C(=O)N[C@@H](CC(C)C)C(=O)N[C@@H](Sc1ccccc1)C(=O)N[C@@H](CC(C)C)C(=O)N[C@@H](CC(=O)O)C(=O)NCC(N)=O)[C@@H](C)CC (H-IRKIL[Gly(SPh)]LDG-NH2)	–	–	5 µM	50
CC[C@H](C)[C@H](N)C(=O)N[C@@H](CCCN=C(N)N)C(=O)N[C@@H](CCCCN)C(=O)N[C@H](C(=O)N[C@@H](CC(C)C)C(=O)N[C@@H](Sc1ccccc1)C(=O)N[C@@H](CC(C)C)C(=O)N[C@@H](CC(=O)O)C(=O)NCC(=O)N[C@H](C(=O)O)[C@@H](C)CC)[C@@H](C)CC (H-IRKIL[Gly(SPh)]LDGI-OH)	–	–	10 µM	10
H-IRKILFLDGI-OH	Not Active	–	–	–
